Tests used:
[1] = parameters: unit not given here; details: literature value (ref 30); cited from earlier work
[2] = Single channel recordings of conductance in supported lipid bilayer; format: biochemical; details: 1 M KCl, transmembrane potential 75 mV, positive control

Substance: gramicidin A
- reported conductance of gramicidin [1]: 0.0459±0.005
- conductance of Gramicidin channels [2]: 0.058±0.008 nS
